From article PMC9227781, “Inhibitors of O-Acetylserine Sulfhydrylase with a Cyclopropane-Carboxylic Acid Scaffold Are Effective Colistin Adjuvants in Gram Negative Bacteria” (Pharmaceuticals, 2022) come the findings set out here.

For one test, the target named is T1, StOASS-A (Salmonella typhimurium, UniProt P0A1E3).
T1 construct: His-tag (with TEV site) (cleaved yes); made in house; host or cells: E. coli Rosetta (DE3)
The test can be described thus: Fluorescence binding assay on purified recombinant StOASS-A. Also on record: species or system S. Typhimurium. The protocol: (§1) The affinity of the compounds for StOASS-A and StOASS-B was determined on the purified recombinant proteins by an in vitro fluorescence binding assay. Measurements were carried out at 20 °C in a 3 mm pathlength quartz microcuvette in 100 mM HEPES, 5% DMSO (Applichem, Darmstadt, Germany), pH 7.0, using a Fluoromax-4 (Horiba Jobin-Yvon, Kyoto, Japan) spectrofluorometer. Emission spectra of solutions containing 0.2–1.0 μM StOASS, upon excitation of the pyridoxal 5′-phosphate cofactor at 412 nm, in the presence of increasing concentrations of compounds were collected; fluorescence intensities at 500 nm were plotted to compound concentration and data were fitted to a binding isotherm: I=I0+ΔI·compound/KD+compound where I is the fluorescence emission intensity at 500 nm in the presence of a given concentration of compound, I0 is the initial fluorescence emission in the absence of ligands, ΔI is the amplitude of the fluorescence emission change and KD is the dissociation constant. When the KD was lower than the protein concentration, data were fitted to the quadratic equation: I=I0+ΔI·OASS+compound+KD−OASS+compound+KD^2−4·OASS·compound/2
(§2) Data were collected in duplicate.
(§3) Esters were tested up to a concentration of 100 μM and no binding was observed.

A further test deals with T2, StOASS-B (Salmonella typhimurium, UniProt P29848).
T2 construct: His-tag (with TEV site) (cleaved yes); made in house; host or cells: E. coli Rosetta (DE3)
T2 sequence (P29848 1-303): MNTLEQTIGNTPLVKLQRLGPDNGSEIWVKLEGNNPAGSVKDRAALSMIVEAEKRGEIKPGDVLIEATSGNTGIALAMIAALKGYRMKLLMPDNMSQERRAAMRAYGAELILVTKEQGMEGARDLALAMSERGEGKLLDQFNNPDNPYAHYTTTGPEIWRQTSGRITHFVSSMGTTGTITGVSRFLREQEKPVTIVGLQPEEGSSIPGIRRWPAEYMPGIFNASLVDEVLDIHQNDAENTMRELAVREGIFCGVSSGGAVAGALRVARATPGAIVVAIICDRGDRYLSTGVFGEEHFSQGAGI
The experiment in a line: Fluorescence binding assay on purified recombinant StOASS-B. The protocol:
as §1, §2, §3

For another test, the system named is E. coli ATCC 25922. The test can be described thus: MIC by broth microdilution, E. coli. The format is cell-based, Escherichia coli. To be noted: Escherichia coli, ATCC25922; compound alone, MHB, 24 h at 37 °C; read-out: MIC (μg/mL) E.coli ATCC 25922. The protocol:
(§4) MIC values were evaluated following CLSI guidelines with some modifications, as referred to in previous work. Twofold dilutions 25.6–0.05 mg/mL of the tested compounds were performed in DMSO in separate 96-well microtiter U-plates (Greiner, Milan, Italy). In a different 96-well microtiter U-plate, for each well of the replicates, 49 µL of broth medium were added. Then, in each well of the plate, one microliter of each compound at variable dilution in DMSO was added. For each test, three independent experiments with three replicates each were performed. Tested reference bacterial strains (E. coli ATCC25922; S. Typhimurium ATCC14028; K. pneumoniae ATCC13883) were brought to the logarithmic phase of growth in MHB medium by incubation at 37 °C for 24 h. After incubation, bacterial suspensions were centrifuged (2000 rpm, 4 °C for 20 min), and then the pellets were resuspended in 100 mM phosphate buffer, pH 7.0, to reach a final bacterial concentration of 10^8 CFU/mL, adjusted by spectrophotometry (OD620nm ranged between 0.08–0.13). The obtained suspensions were further diluted 1:100 in broth medium to reach a bacterial concentration of 10^6 CFU/mL. Fifty µL of the bacterial suspension containing 10^6 CFU/mL were inoculated into each well within 30 min, to obtain a final concentration of 5 × 10^5 CFU/mL in a total volume of 100 µL. The final dilution range tested was 256–0.5 µg/mL. Growth and sterility controls were performed for each strain and for each tested compound. Plates were then incubated for 24 h at 37 °C in a static aerobic atmosphere. After incubation, plates were read by unaided eye with a microtiter reading mirror and then the OD of each well of the plates was measured spectrophotometrically at 620 nm. MIC values were calculated as the arithmetic mean ± standard deviation (SD) of the unaided eye reading and the inhibition of growth for each tested dilution was calculated from the OD values (mean ± SD). A quality control microorganism (E. coli ATCC 25922) was tested periodically to validate the accuracy of the procedure.

In a further test the test system is S. Typhimurium ATCC14028. The experiment in a line: MIC by broth microdilution, S. Typhimurium. To be noted: Salmonella enterica; compound alone, MHB, 24 h at 37 °C; read-out: MIC (μg/mL) S. Typhimurium ATCC14028. The format is cell-based, Salmonella enterica serovar Typhimurium. The protocol:
as §4

In a further test the test system is K. pneumoniae ATCC13883. The experiment in a line: MIC by broth microdilution, K. pneumoniae. In kind it is cell-based, Klebsiella pneumoniae. To be noted: Klebsiella pneumoniae, ATCC13883; compound alone, MHB, 24 h at 37 °C; read-out: MIC (μg/mL) K. pneumoniae ATCC13883. The protocol:
as §4

Where [1] appears, read: 20 °C, 100 mM HEPES, 5% DMSO, pH 7.0, racemic mixture, esters tested up to 100 μM, read-out: KD (μM) OASS-A.
Where [2] appears, read: 20 °C, 100 mM HEPES, 5% DMSO, pH 7.0, racemic mixture, esters tested up to 100 μM.

Where two headings read alike, the source gives them in different places.

T1 sequence (P0A1E3 whole entry): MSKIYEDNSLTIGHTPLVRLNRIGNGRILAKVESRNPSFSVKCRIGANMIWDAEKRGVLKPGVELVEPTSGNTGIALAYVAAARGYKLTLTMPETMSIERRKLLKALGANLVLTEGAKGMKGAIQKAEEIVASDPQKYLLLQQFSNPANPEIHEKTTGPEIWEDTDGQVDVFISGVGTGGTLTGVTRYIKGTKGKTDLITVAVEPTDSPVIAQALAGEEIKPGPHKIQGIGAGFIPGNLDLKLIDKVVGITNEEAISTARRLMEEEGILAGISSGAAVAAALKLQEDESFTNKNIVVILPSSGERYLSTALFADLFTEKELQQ

Take `Cc1ccc(C[C@@]2(C(=O)O)C[C@H]2c2cccc(N3CCOCC3)c2)cc1` (relative stereo) [Compound 13g, trans-1-(4-methylbenzyl)-2-(3-morpholinophenyl)cyclopropanecarboxylic acid]: the Kd on StOASS-A (setting [1]) was found to be 0.1 ± 0.01 µM; on StOASS-B it was 3.86 ± 0.29 µM. Also, the MIC in the test with E. coli ATCC 25922, with S. Typhimurium ATCC14028 and in the test on K. pneumoniae ATCC13883 was above 512 µg/mL throughout.
As for `Cc1ccc(C[C@@]2(C(=O)O)C[C@H]2c2cccc(-c3cn[nH]c3)c2)cc1` (relative stereo) [Compound 9c, trans-2-(3-(1H-pyrazol-4-yl)phenyl)-1-(4-methylbenzyl)cyclopropanecarboxylic acid], the Kd on StOASS-A (setting [1]) stood at 1.01 ± 0.38 µM; on StOASS-B it was 3.05 ± 0.18 µM. Also, the MIC in the test with E. coli ATCC 25922, in the test with S. Typhimurium ATCC14028 and with K. pneumoniae ATCC13883 was above 512 µg/mL each time.
For `Cc1ccc(C[C@@]2(C(=O)O)C[C@H]2c2cccc(-c3cc(O)cc(F)c3)c2)cc1` (relative stereo) [Compound 9e, trans-2-(3′-fluoro-5′-hydroxy-[1,1′-biphenyl]-3-yl)-1-(4-methylbenzyl)cyclopropanecarboxylic acid], the “KD (μM) OASS-A” value at StOASS-A (setting [2]) was “low nanomolar range”. Also, the Kd on StOASS-A (setting [1]) was 0.035 ± 0.003 µM; at StOASS-B, 0.61 ± 0.08 µM. Besides, the MIC in the test on E. coli ATCC 25922, with S. Typhimurium ATCC14028 and in the test with K. pneumoniae ATCC13883 was above 512 µg/mL each time.
For `Cc1ccc(C[C@@]2(C(=O)O)C[C@H]2c2cccc(N3CCNCC3)c2)cc1` (relative stereo) [Compound 21i, trans-1-(4-methylbenzyl)-2-(3-(piperazin-1-yl)phenyl)cyclopropanecarboxylic acid], the Kd at StOASS-A was 0.45 ± 0.09 µM; at StOASS-B (20 °C, 100 mM HEPES, 5% DMSO, pH 7.0, racemic mixture, esters tested up to 100 μM, read-out: KD (μM) OASS-B), 83.8 ± 16.1 µM. The “KD (μM) OASS-A” value on StOASS-A (setting [2]) was “good activity”. Also, the “KD (μM) OASS-B” value at StOASS-B (setting [2]) is listed as “detrimental effect”. Besides, the MIC in the test on E. coli ATCC 25922, with S. Typhimurium ATCC14028 and in the test with K. pneumoniae ATCC13883 was above 512 µg/mL each time.
On to `Cc1ccc(C[C@@]2(C(=O)O)C[C@H]2c2cccc(-c3cccc(F)c3)c2)cc1` (relative stereo) [Compound 9f, trans-2-(3′-fluoro-[1,1′-biphenyl]-3-yl)-1-(4-methylbenzyl)cyclopropanecarboxylic acid], for which the “KD (μM) OASS-A” value on StOASS-A (setting [2]) is “low nanomolar range”. Besides, the Kd at StOASS-A (setting [1]) was found to be 0.051 ± 0.004 µM; at StOASS-B it was 1.45 ± 0.31 µM. For the same compound, the MIC with E. coli ATCC 25922, with S. Typhimurium ATCC14028 and in the test on K. pneumoniae ATCC13883 was above 512 µg/mL each time.
`CCOC(=O)C1(Cc2ccc(C)cc2)CC1c1cccc(-c2cnc(N)nc2)c1` (centres unmarked) [Compound 8a, ethyl 2-(3-(2-aminopyrimidin-5-yl)phenyl)-1-(4-methylbenzyl)cyclopropanecarboxylate]: the MIC with E. coli ATCC 25922, in the test with S. Typhimurium ATCC14028 and in the test on K. pneumoniae ATCC13883 was above 512 µg/mL each time.
`Cc1ccc(C[C@@]2(C(=O)O)C[C@H]2c2cccc(-c3cnc(N)nc3)c2)cc1` (relative stereo) [Compound 9a, trans-2-(3-(2-aminopyrimidin-5-yl)phenyl)-1-(4-methylbenzyl)cyclopropanecarboxylic acid]: the Kd on StOASS-A (setting [1]) is 0.57 ± 0.16 µM; at StOASS-B it was 1.29 ± 0.09 µM. For the same compound, the MIC in the test on E. coli ATCC 25922, in the test with S. Typhimurium ATCC14028 and with K. pneumoniae ATCC13883 was above 512 µg/mL each time.
As to `Cc1ccc(C[C@@]2(C(=O)O)C[C@H]2c2cccc(-c3ccccc3)c2)cc1` (relative stereo) [Compound 9d, trans-2-([1,1′-biphenyl]-3-yl)-1-(4-methylbenzyl)cyclopropanecarboxylic acid], the figures for the dissociation constant (Kd) at StOASS-A (setting [1]) and at StOASS-B were 2.51 ± 0.61 µM and 6.8 ± 1.1 µM, respectively. Moreover, the MIC with E. coli ATCC 25922, with S. Typhimurium ATCC14028 and with K. pneumoniae ATCC13883 was above 512 µg/mL in each case.
In the case of `Cc1ccc(C[C@@]2(C(=O)O)C[C@H]2c2cccc(-c3c[nH]nc3C)c2)cc1` (relative stereo) [Compound 9b, trans-2-(3-(3-methyl-1H-pyrazol-4-yl)phenyl)-1-(4-methylbenzyl)cyclopropanecarboxylic acid], the Kd turned out to be 1.86 ± 0.76 µM at StOASS-A (setting [1]) and 2.63 ± 0.04 µM at StOASS-B. In addition, the MIC with E. coli ATCC 25922, in the test on S. Typhimurium ATCC14028 and in the test on K. pneumoniae ATCC13883 was above 512 µg/mL throughout.
For the compound `CCOC(=O)[C@]1(Cc2ccc(C)cc2)C[C@H]1c1cccc(-c2ccccc2)c1` (relative stereo) [Compound 8d, trans-ethyl 2-([1,1′-biphenyl]-3-yl)-1-(4-methylbenzyl)cyclopropanecarboxylate], the “KD (μM) OASS-A” value on StOASS-A (setting [2]) is on record as “No binding”. Besides, the “KD (μM) OASS-B” value at StOASS-B (setting [2]) is recorded as “No binding”. Moreover, the MIC in the test on E. coli ATCC 25922, in the test with S. Typhimurium ATCC14028 and in the test on K. pneumoniae ATCC13883 was above 512 µg/mL throughout.
Consider `Cc1ccc(C[C@@]2(C(=O)O)C[C@H]2c2cccc(N3CCN(C)CC3)c2)cc1` (relative stereo) [Compound 21j, trans-1-(4-methylbenzyl)-2-(3-(4-methylpiperazin-1-yl)phenyl)cyclopropanecarboxylic acid], for which, at StOASS-A (setting [2]), the “KD (μM) OASS-A” value is recorded as “good activity”. In addition, the Kd turned out to be 0.25 ± 0.06 µM at StOASS-A (setting [1]) and 23.6 ± 4.5 µM at StOASS-B. For the same compound, the “KD (μM) OASS-B” value at StOASS-B (setting [2]) was “detrimental effect”. For the same compound, the MIC in the test on E. coli ATCC 25922, in the test on S. Typhimurium ATCC14028 and in the test on K. pneumoniae ATCC13883 was above 512 µg/mL in each case.
